# Tested on: MV-4-11 cells
# Experiment: Gene expression microarray analysis (Affymetrix PrimeView) and GSEA
# Type: cell-based, human
# Parameters: RFU PODN (11730768_x_at) / Fold change /veh PODN (11730768_x_at) / RFU LINC00158 (11744669_a_at) / Fold change /veh LINC00158 (11744669_a_at) / RFU DUSP10 (11751237_a_at) / Fold change /veh DUSP10 (11751237_a_at) / RFU ID3 (11757404_x_at) / Fold change /veh ID3 (11757404_x_at) / RFU PLEKHG5 (11737974_s_at) / Fold change /veh PLEKHG5 (11737974_s_at) / RFU LRRC4B (11730491_at) / Fold change /veh LRRC4B (11730491_at) / RFU GIMAP4 (11747438_a_at) / Fold change /veh GIMAP4 (11747438_a_at) / RFU KRT8 (11758183_x_at) / Fold change /veh KRT8 (11758183_x_at) / RFU CNN1 (11734310_a_at) / Fold change /veh CNN1 (11734310_a_at) / RFU VPS37D (11726825_at) / Fold change /veh VPS37D (11726825_at) / RFU C10orf10 (11716522_x_at) / Fold change /veh C10orf10 (11716522_x_at) / RFU KIR2DL2 /// KIR2DL4 /// KIR2DL5A /// KIR2DL5B /// KIR2DS1 /// KIR2DS2 /// KIR2DS3 /// KIR2DS4 /// KIR3DL3 /// KIR3DL3 /// KIR3DS1 (11738374_at) / Fold change /veh KIR2DL2 /// KIR2DL4 /// KIR2DL5A /// KIR2DL5B /// KIR2DS1 /// KIR2DS2 /// KIR2DS3 /// KIR2DS4 /// KIR3DL3 /// KIR3DL3 /// KIR3DS1 (11738374_at) / RFU C1QL1 (11718748_at) / Fold change /veh C1QL1 (11718748_at) / RFU TMPRSS4 (11747572_a_at) / Fold change /veh TMPRSS4 (11747572_a_at) / RFU HAMP (11756126_x_at) / Fold change /veh HAMP (11756126_x_at) / RFU RNFT2 (11725882_a_at) / Fold change /veh RNFT2 (11725882_a_at) / RFU NR4A2 (11747474_a_at) / Fold change /veh NR4A2 (11747474_a_at) / RFU ABCC12 (11746883_a_at) / Fold change /veh ABCC12 (11746883_a_at) / RFU TMEM136 (11760407_x_at) / Fold change /veh TMEM136 (11760407_x_at) / RFU CLDN22 /// WWC2 (11732394_at) / Fold change /veh CLDN22 /// WWC2 (11732394_at) / RFU HLA-DPB1 (11760878_x_at) / Fold change /veh HLA-DPB1 (11760878_x_at) / RFU SPINT1 (11716480_a_at) / Fold change /veh SPINT1 (11716480_a_at) / RFU GAP43 (11754022_s_at) / Fold change /veh GAP43 (11754022_s_at) / RFU A4GNT (11735810_at) / Fold change /veh A4GNT (11735810_at) / RFU PRB3 (11715151_x_at) / Fold change /veh PRB3 (11715151_x_at) / RFU TUBB4B (11761932_at) / Fold change /veh TUBB4B (11761932_at) / RFU CAPN14 (11732068_a_at) / Fold change /veh CAPN14 (11732068_a_at) / RFU TMCC2 (11721928_a_at) / Fold change /veh TMCC2 (11721928_a_at) / RFU IRGQ (11745062_a_at) / Fold change /veh IRGQ (11745062_a_at) / RFU FAM174B (11720279_a_at) / Fold change /veh FAM174B (11720279_a_at) / RFU TMPRSS4 (11748680_a_at) / Fold change /veh TMPRSS4 (11748680_a_at) / RFU FAM212B (11763350_a_at) / Fold change /veh FAM212B (11763350_a_at) / RFU PLEKHG5 (11743358_a_at) / Fold change /veh PLEKHG5 (11743358_a_at) / RFU ZSCAN30 (11745921_a_at) / Fold change /veh ZSCAN30 (11745921_a_at) / RFU CMKLR1 (11741424_a_at) / Fold change /veh CMKLR1 (11741424_a_at) / RFU LOC101060620 /// MAPK8IP1 (11723275_at) / Fold change /veh LOC101060620 /// MAPK8IP1 (11723275_at) / RFU SPTSSB (11747773_x_at) / Fold change /veh SPTSSB (11747773_x_at) / RFU PRSS12 (11739890_at) / Fold change /veh PRSS12 (11739890_at) / RFU BIN1 (11741810_x_at) / Fold change /veh BIN1 (11741810_x_at) / RFU WNT11 (11732464_a_at) / Fold change /veh WNT11 (11732464_a_at) / RFU C10orf10 (11716521_a_at) / Fold change /veh C10orf10 (11716521_a_at) / RFU C5orf56 (11738089_at) / Fold change /veh C5orf56 (11738089_at) / RFU CYB561 (11721691_x_at) / Fold change /veh CYB561 (11721691_x_at) / RFU ANKRD19P (11752326_a_at) / Fold change /veh ANKRD19P (11752326_a_at) / RFU OR2T12 /// OR2T33 /// OR2T8 (11738714_s_at) / Fold change /veh OR2T12 /// OR2T33 /// OR2T8 (11738714_s_at) / RFU VCAN (11748164_a_at) / Fold change /veh VCAN (11748164_a_at) / RFU JSRP1 (11732532_at) / Fold change /veh JSRP1 (11732532_at) / RFU KRTAP10-11 (11738290_x_at) / Fold change /veh KRTAP10-11 (11738290_x_at) / RFU MYO3A (11730013_a_at) / Fold change /veh MYO3A (11730013_a_at) / RFU EBF3 (11725865_a_at) / Fold change /veh EBF3 (11725865_a_at) / RFU CAMK2N1 (11719241_x_at) / Fold change /veh CAMK2N1 (11719241_x_at) / RFU C5orf56 (11738088_a_at) / Fold change /veh C5orf56 (11738088_a_at) / RFU OLFML3 (11715873_a_at) / Fold change /veh OLFML3 (11715873_a_at) / RFU LOC100653217 /// NTM (11731650_a_at) / Fold change /veh LOC100653217 /// NTM (11731650_a_at) / RFU MAPK11 (11762145_a_at) / Fold change /veh MAPK11 (11762145_a_at) / RFU FIZ1 (11724087_x_at) / Fold change /veh FIZ1 (11724087_x_at) / RFU OASL (11726364_x_at) / Fold change /veh OASL (11726364_x_at) / RFU SOX15 (11748057_x_at) / Fold change /veh SOX15 (11748057_x_at) / RFU CD79A (11719716_a_at) / Fold change /veh CD79A (11719716_a_at) / RFU HIST1H1D (11736915_at) / Fold change /veh HIST1H1D (11736915_at) / RFU CASKIN2 (11723855_a_at) / Fold change /veh CASKIN2 (11723855_a_at) / RFU LOC730098 (11760151_x_at) / Fold change /veh LOC730098 (11760151_x_at) / RFU OR4N2 (11742367_at) / Fold change /veh OR4N2 (11742367_at) / RFU PRRT2 (11749266_a_at) / Fold change /veh PRRT2 (11749266_a_at) / RFU SNX32 (11753110_a_at) / Fold change /veh SNX32 (11753110_a_at) / RFU CDHR5 (11726645_a_at) / Fold change /veh CDHR5 (11726645_a_at) / RFU RCAN1 (11760418_a_at) / Fold change /veh RCAN1 (11760418_a_at) / RFU FAM167A (11723789_a_at) / Fold change /veh FAM167A (11723789_a_at) / RFU FAM26E (11764081_at) / Fold change /veh FAM26E (11764081_at) / RFU ISYNA1 (11749810_s_at) / Fold change /veh ISYNA1 (11749810_s_at) / RFU ACY1 (11761880_at) / Fold change /veh ACY1 (11761880_at) / RFU 11764098_at / Fold change /veh 11764098_at / RFU SAMD14 (11745864_x_at) / Fold change /veh SAMD14 (11745864_x_at) / RFU NPB (11741838_a_at) / Fold change /veh NPB (11741838_a_at) / RFU TMPRSS6 (11731388_a_at) / Fold change /veh TMPRSS6 (11731388_a_at) / RFU KRTAP10-2 (11738614_at) / Fold change /veh KRTAP10-2 (11738614_at) / RFU ARHGAP8 /// PRR5-ARHGAP8 (11727945_x_at) / Fold change /veh ARHGAP8 /// PRR5-ARHGAP8 (11727945_x_at) / RFU KRTAP5-7 /// NADSYN1 (11734609_at) / Fold change /veh KRTAP5-7 /// NADSYN1 (11734609_at) / RFU RASL12 (11751679_a_at) / Fold change /veh RASL12 (11751679_a_at) / RFU CDKN2B (11736163_a_at) / Fold change /veh CDKN2B (11736163_a_at) / RFU PRF1 (11729649_at) / Fold change /veh PRF1 (11729649_at) / RFU, ZNF638 /// ZNF638-IT1 / Fold change vs veh, ZNF638 /// ZNF638-IT1 / RFU, PANK3 / Fold change vs veh, PANK3 / RFU, SH3YL1 / Fold change vs veh, SH3YL1 / RFU, ZEB2 / Fold change vs veh, ZEB2 / RFU, NRIP1 / Fold change vs veh, NRIP1 / RFU, PTTG1IP / Fold change vs veh, PTTG1IP / RFU, CAPN2 / Fold change vs veh, CAPN2 / RFU, MED14 / Fold change vs veh, MED14 / RFU, SNORA58 / Fold change vs veh, SNORA58 / RFU, C1orf63 / Fold change vs veh, C1orf63 / RFU, LRRFIP1 / Fold change vs veh, LRRFIP1 / RFU, NDUFAF7 / Fold change vs veh, NDUFAF7 / RFU, SLC12A2 / Fold change vs veh, SLC12A2 / RFU, IBTK / Fold change vs veh, IBTK / RFU, ESF1 / Fold change vs veh, ESF1 / Fold change vs veh, TMEM50B / RFU, TAOK1 / Fold change vs veh, TAOK1 / RFU, ACBD3 / Fold change vs veh, ACBD3 / RFU, TMA16 / Fold change vs veh, TMA16 / RFU, RWDD3 / Fold change vs veh, RWDD3 / RFU, BCAT1 / Fold change vs veh, BCAT1 / RFU, EDEM3 / Fold change vs veh, EDEM3 / RFU, TMEM33 / Fold change vs veh, TMEM33 / RFU, WDR75 / Fold change vs veh, WDR75 / RFU, AHCTF1 / Fold change vs veh, AHCTF1 / RFU, TFRC / Fold change vs veh, TFRC / RFU, ZDHHC17 / Fold change vs veh, ZDHHC17 / RFU, NOM1 / Fold change vs veh, NOM1 / RFU, ARL8B / Fold change vs veh, ARL8B / RFU, ZBTB11 / Fold change vs veh, ZBTB11 / RFU, TAMM41 / Fold change vs veh, TAMM41 / RFU, KIAA1704 /// LOC100996395 / Fold change vs veh, KIAA1704 /// LOC100996395 / RFU, ING1 / Fold change vs veh, ING1 / RFU, TRMT61B / Fold change vs veh, TRMT61B / RFU, FUBP3 / Fold change vs veh, FUBP3 / RFU, TP53 / Fold change vs veh, TP53 / RFU, TNKS2 / Fold change vs veh, TNKS2 / RFU, ZFP14 / Fold change vs veh, ZFP14 / RFU, ACTR2 / Fold change vs veh, ACTR2 / RFU, PPP3R1 / Fold change vs veh, PPP3R1 / RFU, PIK3R1 / Fold change vs veh, PIK3R1 / RFU, HNRNPA1 / Fold change vs veh, HNRNPA1 / RFU, RNF170 / Fold change vs veh, RNF170 / RFU, ZNF28 / Fold change vs veh, ZNF28 / RFU, RNGTT / Fold change vs veh, RNGTT / RFU, OGT / Fold change vs veh, OGT / RFU, BRD1 / Fold change vs veh, BRD1 / RFU, MARS / Fold change vs veh, MARS / RFU, ZNF655 / Fold change vs veh, ZNF655 / RFU, FAHD1 / Fold change vs veh, FAHD1 / RFU, BDP1 / Fold change vs veh, BDP1 / RFU, LRRCC1 / Fold change vs veh, LRRCC1 / RFU, ARID1A / Fold change vs veh, ARID1A / RFU, ZNF146 / Fold change vs veh, ZNF146 / RFU, ZNF330 / Fold change vs veh, ZNF330 / RFU, GPN3 / Fold change vs veh, GPN3 / RFU, C9orf123 / Fold change vs veh, C9orf123 / RFU, N4BP2L2 / Fold change vs veh, N4BP2L2 / RFU, ARFIP1 / Fold change vs veh, ARFIP1 / RFU, FAM179B / Fold change vs veh, FAM179B / RFU, BCL10 / Fold change vs veh, BCL10 / RFU, UHRF1BP1L / Fold change vs veh, UHRF1BP1L / RFU, BET1 / Fold change vs veh, BET1 / RFU, CNOT2 / Fold change vs veh, CNOT2 / RFU, ZNF268 / Fold change vs veh, ZNF268 / Fold change vs veh, ZNF507 / RFU, DGCR2 / Fold change vs veh, DGCR2 / RFU, WDSUB1 / Fold change vs veh, WDSUB1 / Fold change vs veh, HSP90B1 /// MIR3652 / RFU, ADSS / Fold change vs veh, ADSS / RFU, GK / Fold change vs veh, GK / RFU, ZNF148 / Fold change vs veh, ZNF148 / RFU, TAF9 / Fold change vs veh, TAF9 / RFU, SLC1A5 / Fold change vs veh, SLC1A5 / RFU, SLMO2 / Fold change vs veh, SLMO2 / RFU, ABCC4 / Fold change vs veh, ABCC4 / RFU, LOC101060439 /// RAP1B / Fold change vs veh, LOC101060439 /// RAP1B / RFU, RFX7 / Fold change vs veh, RFX7 / RFU, GTPBP10 / Fold change vs veh, GTPBP10 / RFU, CNEP1R1 / Fold change vs veh, CNEP1R1 / RFU, BIVM-ERCC5 /// ERCC5 / Fold change vs veh, BIVM-ERCC5 /// ERCC5 / RFU, ILF3 / Fold change vs veh, ILF3 / RFU 11762660_at / Fold change /veh 11762660_at / RFU VCAN (11757783_s_at) / Fold change /veh VCAN (11757783_s_at) / RFU DDX43 (11728927_at) / Fold change /veh DDX43 (11728927_at) / RFU KRT8 (11758188_x_at) / Fold change /veh KRT8 (11758188_x_at) / RFU NKD1 (11759106_at) / Fold change /veh NKD1 (11759106_at) / RFU SRD5A1 (11742802_a_at) / Fold change /veh SRD5A1 (11742802_a_at) / RFU TPSAB1 /// TPSB2 (11721975_s_at) / Fold change /veh TPSAB1 /// TPSB2 (11721975_s_at) / RFU GSTM3 (11746129_a_at) / Fold change /veh GSTM3 (11746129_a_at) / RFU IL23R (11737362_x_at) / Fold change /veh IL23R (11737362_x_at) / RFU TMEM51 (11727254_a_at) / Fold change /veh TMEM51 (11727254_a_at) / RFU PIWIL2 (11732686_x_at) / Fold change /veh PIWIL2 (11732686_x_at) / RFU ORM1 (11744905_x_at) / Fold change /veh ORM1 (11744905_x_at) / RFU CCDC152 (11743942_at) / Fold change /veh CCDC152 (11743942_at) / RFU ECM1 (11717891_a_at) / Fold change /veh ECM1 (11717891_a_at) / RFU IL23R (11748794_a_at) / Fold change /veh IL23R (11748794_a_at) / RFU TNFAIP8L3 (11732012_x_at) / Fold change /veh TNFAIP8L3 (11732012_x_at) / RFU MBOAT4 (11741988_at) / Fold change /veh MBOAT4 (11741988_at) / RFU 11764193_at / Fold change /veh 11764193_at / RFU TMEM53 (11763286_at) / Fold change /veh TMEM53 (11763286_at) / RFU MAGEB2 (11727129_at) / Fold change /veh MAGEB2 (11727129_at) / RFU TMEM200A (11744735_a_at) / Fold change /veh TMEM200A (11744735_a_at) / RFU CCDC152 (11751479_a_at) / Fold change /veh CCDC152 (11751479_a_at) / RFU FAM211A (11726209_a_at) / Fold change /veh FAM211A (11726209_a_at) / RFU RGS16 (11746705_a_at) / Fold change /veh RGS16 (11746705_a_at) / RFU VCAN (11755009_s_at) / Fold change /veh VCAN (11755009_s_at) / RFU RHOB (11743442_s_at) / Fold change /veh RHOB (11743442_s_at) / RFU RGS16 (11720943_a_at) / Fold change /veh RGS16 (11720943_a_at) / RFU RGS16 (11720944_at) / Fold change /veh RGS16 (11720944_at) / RFU, VPS4B / Fold change vs veh, VPS4B / RFU, CREB1 / Fold change vs veh, CREB1 / RFU, DNAJC13 / Fold change vs veh, DNAJC13 / RFU, GNAQ / Fold change vs veh, GNAQ / RFU, CDK5R1 / Fold change vs veh, CDK5R1 / RFU, ZRANB3 / Fold change vs veh, ZRANB3 / RFU, CUL4A / Fold change vs veh, CUL4A / RFU, CCNY / Fold change vs veh, CCNY / RFU, UFL1 / Fold change vs veh, UFL1 / RFU, COG3 / Fold change vs veh, COG3 / RFU, DIAPH2 / Fold change vs veh, DIAPH2 / RFU, SKA2 / Fold change vs veh, SKA2 / RFU, AFF3 / Fold change vs veh, AFF3 / RFU, LMF1 / Fold change vs veh, LMF1 / RFU, IPO11 / Fold change vs veh, IPO11 / RFU, DFFB / Fold change vs veh, DFFB / RFU, FOXP1 / Fold change vs veh, FOXP1 / RFU, CARD8 / Fold change vs veh, CARD8 / RFU, STRN3 / Fold change vs veh, STRN3 / RFU, ADK / Fold change vs veh, ADK / RFU, RASSF2 / Fold change vs veh, RASSF2 / RFU, WIPF1 / Fold change vs veh, WIPF1 / RFU, LARP1B / Fold change vs veh, LARP1B / RFU, RASA1 / Fold change vs veh, RASA1 / RFU, RB1 / Fold change vs veh, RB1 / RFU, PPFIA1 / Fold change vs veh, PPFIA1 / RFU, MAT2A / Fold change vs veh, MAT2A / RFU, CCT5 / Fold change vs veh, CCT5 / RFU, WDR92 / Fold change vs veh, WDR92 / RFU, CUX1 / Fold change vs veh, CUX1 / RFU, TTC7A / Fold change vs veh, TTC7A / RFU, TMEM135 / Fold change vs veh, TMEM135 / RFU, DEPTOR / Fold change vs veh, DEPTOR / RFU, CPM / Fold change vs veh, CPM / RFU, DNAJB6 / Fold change vs veh, DNAJB6 / RFU, CACNA2D3 / Fold change vs veh, CACNA2D3 / RFU, DTX4 / Fold change vs veh, DTX4 / RFU, TFCP2 / Fold change vs veh, TFCP2 / RFU, GMCL1 /// GMCL1P1 / Fold change vs veh, GMCL1 /// GMCL1P1 / RFU, AEBP2 / Fold change vs veh, AEBP2 / RFU, SNHG1 /// SNORD22 /// SNORD25 /// SNORD26 /// SNORD27 /// SNORD28 /// SNORD29 /// SNORD31 / Fold change vs veh, SNHG1 /// SNORD22 /// SNORD25 /// SNORD26 /// SNORD27 /// SNORD28 /// SNORD29 /// SNORD31 / Fold change (Aza/veh), C12orf56 (ProbeSet 11735607_a_at) / Fold change (ACY-1035/veh), C12orf56 (ProbeSet 11735607_a_at) / Fold change (Aza/veh), FGFR1OP (ProbeSet 11751329_s_at) / Fold change (ACY-1035/veh), FGFR1OP (ProbeSet 11751329_s_at) / Fold change (Aza/veh), VPS36 (ProbeSet 11739960_a_at) / Fold change (ACY-1035/veh), VPS36 (ProbeSet 11739960_a_at) / RFU SYPL1 (11715823_x_at) / Fold change /veh SYPL1 (11715823_x_at) / RFU IGFBP7 (11715501_s_at) / Fold change /veh IGFBP7 (11715501_s_at) / RFU REEP3 (11722064_at) / Fold change /veh REEP3 (11722064_at) / RFU IGLL1 (11728026_x_at) / Fold change /veh IGLL1 (11728026_x_at): dose or concentration left out as unconfirmed
# Details: ProbeSet 11739263_x_at; LIST D
structure (smiles),measurement,value
Nc1ncn([C@@H]2O[C@H](CO)[C@@H](O)[C@H]2O)c(=O)n1 [azacitidine],"Fold change vs veh, VPS4B",0.80
